Patent publication EP3888661A1, “COMPOSITIONS COMPRISING 2 -FUCOSYLLACTOSE TO PREVENT VIRAL INFECTIONS” (FrieslandCampina Nederland B.V., priority 2020, dated 2021)

Key:
[1] = tested on: anaerobic microbiota from human origin; test: TIM-2 in vitro fermentation model of the human colon, SCFA/acetate production
Text: The in vitro fermentation studies were done using the TIM-2 model. This is a validated, dynamic, computer-controlled model that simulates the human colon, mimicking body temperature, lumen pH, absorption of water and microbial metabolites through a semipermeable membrane inside the model, mixing and transporting the intestinal contents with peristaltic movements, using an anaerobic microbiota from human origin, it corresponds basically to the model as described in Minekus, M., etal. Appl. Microbiol. Biotechnol. 1999 53, 108-114. doi: 10.1007/ s002530051622 and Kortman et al., Frontiers in Microbiology 2016, 6, 1481. Characteristics of the movements of the contents in the TIM-2 system was simulated using an increase of the pH and peristaltic movements of the contents in the system using peristaltic pumps as described in Minekus, M (1998. Development and validation of a dynamic model of the gastrointestinal tract. PhD thesis, Delft University of Technology, The Netherlands).
SCFA analysis was performed at Brightlabs B.V., Venlo, The Netherlands), according to (Sáyago-Ayerdi SG, et al. Food Research International, E-pub date 13 December 2017; Sayago Ayerdi et al Food Research International 118 (2019) 89-95). […]
Samples (1 mL) were taken for Short Chain Fatty Acid (SCFA) analysis after 1, 2, 4, 6, 8 and 24 h after test product insertion; cumulative absolute amounts of SCFA were determined. […]

[2] = cited from earlier work

Which acetate production ([1]; 7.5 gram test product as single shot, cumulative acetate produced between 8 and 24 hours after insertion, representing the distal colon, pooled fecal microbiota of 20 healthy subjects) does the source give for `C[C@@H]1O[C@@H](O[C@H]2[C@H](O[C@H]3[C@H](O)[C@@H](O)C(O)O[C@@H]3CO)O[C@H](CO)[C@H](O)[C@@H]2O)[C@@H](O)[C@H](O)[C@@H]1O` (stereo partly drawn) [2'-FL, 2'-Fucosyllactose] here?
The acetate production was 17 mmol.

And the acetate production ([1]; fecal microbiota samples of lean and of obese subjects in the TIM-2 model system)?
The acetate production was “An increase in the acetate production was observed”.

And the “daily dosage tested as safe” value [2]?
The value was 20 g.
